Assay results published in patent US12351588B2, “Salt forms and solvates of Mcl-1 antagonists” (AMGEN INC., priority 2022, dated 2025).
Where a name gives a salt, the structure may show the parent alone.

Columns and labels:
[1] = Moisture sorption (DVS, VTI vapor sorption analyzer); format: physicochemical; conditions: for weight gain (moisture sorption profile): by 95% relative humidity, 25° C.
Method: Moisture Sorption: Moisture sorption data was collected at 25° C. using a VTI vapor sorption analyzer. A sample size of approximately 4-10 mg was used in a standard platinum pan. Hygroscopicity was evaluated from 5 to 95% RH in increments of 5% RH. Data for adsorption and desorption cycles were collected. Equilibrium criteria were set at 0.001% weight change in 10 minute with a maximum equilibration time of 180 minutes.

[2] = Solubility of AMG 176 Form 1 in water under neutral conditions; format: physicochemical

weight gain (moisture sorption profile) [1] | fate of the sorbed weight gain upon desorption ([1]; desorption after sorption to 95% relative humidity) | solubility [2] | Structure (SMILES)
about 5% | lost upon desorption |  | CO[C@H]1/C=C/C[C@H](C)[C@@H](C)S(=O)(=O)NC(=O)c2ccc3c(c2)N(C[C@@H]2CC[C@H]21)C[C@@]1(CCCc2cc(Cl)ccc21)CO3 [crystalline potassium salt hydrate form of AMG 176]
 |  | < 0.1 µg/mL | CO[C@H]1/C=C/C[C@H](C)[C@@H](C)S(=O)(=O)NC(=O)c2ccc3c(c2)N(C[C@@H]2CC[C@H]21)C[C@@]1(CCCc2cc(Cl)ccc21)CO3 [AMG 176 Form 1]
about 1.2% |  |  | CO[C@H]1/C=C/C[C@H](C)[C@@H](C)S(=O)(=O)NC(=O)c2ccc3c(c2)N(C[C@@H]2CC[C@H]21)C[C@@]1(CCCc2cc(Cl)ccc21)CO3 [crystalline ammonium salt form of AMG 176]
